Experiments:
[1] = tested on: Aphis craccivora; assay: Insecticidal activity against Aphis craccivora (cowpea aphid) assessed as mortality at 500 mg/l measured after 24 hr; format: functional
[2] = tested on: Aphis craccivora; assay: Insecticidal activity against Aphis craccivora (cowpea aphid) assessed as mortality measured after 24 hr; format: functional

| Structure (SMILES) | mortality at 500 µg/mL [1] [%] | LC50 [2] [µM] |
| --- | --- | --- |
| O=[N+]([O-])C1=C2N(Cc3ccc(Cl)nc3)CCN2C(OC/C=C\c2ccccc2)CC1 (centres undefined) | < 10 |  |
| CCOCCOC1CCC([N+](=O)[O-])=C2N(Cc3ccc(Cl)nc3)CCN21 (centres undefined) | 10.2 |  |
| O=[N+]([O-])C1=C2N(Cc3ccc(Cl)nc3)CCN2C(O)CC1 (centres undefined) | > 90 | 188 |
| COC1CCC([N+](=O)[O-])=C2N(Cc3ccc(Cl)nc3)CCN21 (centres undefined) | > 90 | 132 |
| CCOC1CCC([N+](=O)[O-])=C2N(Cc3ccc(Cl)nc3)CCN21 (centres undefined) | > 90 | 96 |
| CCCOC1CCC([N+](=O)[O-])=C2N(Cc3ccc(Cl)nc3)CCN21 (centres undefined) | > 90 | 105 |
| CC(C)OC1CCC([N+](=O)[O-])=C2N(Cc3ccc(Cl)nc3)CCN21 (centres undefined) | > 90 | 260 |
| O=[N+]([O-])C1=C2N(Cc3ccc(Cl)nc3)CCN2C(OCCCl)CC1 (centres undefined) | 44.8 |  |
| O=[N+]([O-])C1=C2N(Cc3ccc(Cl)nc3)CCN2C(OCC(F)(F)F)CC1 (centres undefined) | 10.3 |  |
| CCCCOC1CCC([N+](=O)[O-])=C2N(Cc3ccc(Cl)nc3)CCN21 (centres undefined) | 77.7 |  |
| CCC(C)OC1CCC([N+](=O)[O-])=C2N(Cc3ccc(Cl)nc3)CCN21 (centres undefined) | < 10 |  |
| CC(C)COC1CCC([N+](=O)[O-])=C2N(Cc3ccc(Cl)nc3)CCN21 (centres undefined) | 76.3 |  |
| CC(C)(C)OC1CCC([N+](=O)[O-])=C2N(Cc3ccc(Cl)nc3)CCN21 (centres undefined) | 72.8 |  |
| CCCCCOC1CCC([N+](=O)[O-])=C2N(Cc3ccc(Cl)nc3)CCN21 (centres undefined) | 62.6 |  |
| CC(C)CCOC1CCC([N+](=O)[O-])=C2N(Cc3ccc(Cl)nc3)CCN21 (centres undefined) | 24.4 |  |
| O=[N+]([O-])C1=C2N(Cc3ccc(Cl)nc3)CCN2C(OCc2ccccc2)CC1 (centres undefined) | > 90 | 573 |
| O=[N+]([O-])C1=C2N(Cc3ccc(Cl)nc3)CCN2C(OCc2ccc(Cl)nc2)CC1 (centres undefined) | 50 | 1150 |
| C#CCOC1CCC([N+](=O)[O-])=C2N(Cc3ccc(Cl)nc3)CCN21 (centres undefined) | 46.9 |  |
| CC(C)=CCOC1CCC([N+](=O)[O-])=C2N(Cc3ccc(Cl)nc3)CCN21 (centres undefined) | 15.9 |  |
| COC1CC(C)C([N+](=O)[O-])=C2N(Cc3ccc(Cl)nc3)CCN21 (centres undefined) | > 90 | 148 |
| CC1CC(O)N2CCN(Cc3ccc(Cl)nc3)C2=C1[N+](=O)[O-] (centres undefined) | > 90 | 97 |
| CCOC1CC(C)C([N+](=O)[O-])=C2N(Cc3ccc(Cl)nc3)CCN21 (centres undefined) | > 90 | 186 |
| O=[N+]([O-])/N=C1\NCCN1Cc1ccc(Cl)nc1 [IMIDACLOPRID] | > 90 | 35 |
